# The supplement of paper PMC10702517
# ± gives the standard deviation.
# Legend:
# [1] = chemical recovery by SPE of plasma after PDMS sampling; higher = better extraction; conditions: pooled human plasma, extraction method: HLB SPE of plasma after PES
# [2] = chemical recovery from spiked human plasma; higher = better extraction; conditions: pooled human plasma
# [3] = extraction method: SPE only (HLB 96-well), PES comparison experiment
# [4] = extraction method: PES+SPE (3 d PDMS equilibration then HLB SPE)
# [5] = extraction method: SPE only (HLB 96-well)
# [6] = extraction method: solvent precipitation (ACN + hexane)
# 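Wherever chemical recovery by SPE of plasma after PDMS sampling is given: over 400 spiked chemicals quantified by LC-HRMS or GC-HRMS via internal standard calibration, recovery relative to spike mix added to unspiked plasma extract to correct matrix effects.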
SMILES,chemical recovery by SPE of plasma ([1]; equilibration time (d): 1),chemical recovery by SPE of plasma ([1]; equilibration time (d): 3),"chemical recovery [2, 3]","chemical recovery [2, 4]","chemical recovery [2, 5]","chemical recovery [2, 6]",chemical recovery by SPE of plasma ([1]; equilibration time (d): 6)
CCCCCCCCCCCC[N+](C)(C)Cc1ccccc1 [Benzyldimethyldodecylammonium],39.1 ± 6.7%,43.2 ± 10%,46.5 ± 13%,,,,
O=C(O)c1cc(Oc2ccc(Cl)cc2Cl)ccc1[N+](=O)[O-] [Bifenox free acid],,40.7 ± 16%,36.6 ± 6.7%,38.2 ± 3.9%,30.6 ± 3.6%,65.8 ± 3.1%,
Oc1c(Br)cc(Cl)cc1Cc1cc(Cl)cc(Br)c1O [Bromochlorophen],34.8 ± 10%,,32.3 ± 8%,34.8 ± 6.3%,28.9 ± 6%,34.9 ± 2%,
CCCCCOC(=O)Nc1nc(=O)n([C@@H]2O[C@H](C)[C@@H](O)[C@H]2O)cc1F [Capecitabine],44.1 ± 5.1%,48.6 ± 5.5%,47.5 ± 7.2%,,,,44.2 ± 1.7%
O=C(O)COCCN1CCN(C(c2ccccc2)c2ccc(Cl)cc2)CC1 (configuration not stated) [Cetirizine],47.2 ± 6.6%,52.3 ± 5.3%,48.6 ± 6.5%,69.9 ± 7.9%,50.9 ± 2.3%,,47.7 ± 2.9%
CC[C@H]1OC(=O)[C@H](C)[C@@H](O[C@H]2C[C@@](C)(OC)[C@@H](O)[C@H](C)O2)[C@H](C)[C@@H](O[C@@H]2O[C@H](C)C[C@H](N(C)C)[C@H]2O)[C@](C)(OC)C[C@@H](C)C(=O)[C@H](C)[C@@H](O)[C@]1(C)O [Clarithromycin],22 ± 3.3%,24.4 ± 2.8%,44.1 ± 6.5%,30.2 ± 4.1%,45.1 ± 2.3%,69.1 ± 2.1%,22.3 ± 2.2%
CC(C)(Oc1ccc(Cl)cc1)C(=O)O [Clofibric acid],53.1 ± 9.5%,58.7 ± 6.2%,61 ± 5.4%,44.8 ± 1.8%,44.7 ± 2.7%,66.6 ± 7.9%,51.5 ± 4.8%
CC[N+](CC)(CC(=O)Nc1c(C)cccc1C)Cc1ccccc1 [Denatonium],56.4 ± 6.3%,57.1 ± 3.3%,49.9 ± 3.3%,50.8 ± 2.9%,38.4 ± 3.9%,71.9 ± 3.3%,54.9 ± 6.9%
Cc1cccc(C)c1NC(=O)CS(=O)(=O)O [Dimethachlor CGA369-873],,23.6 ± 2.8%,45.2 ± 5%,42.4 ± 2.5%,40.3 ± 3.8%,79.6 ± 8.1%,28.2 ± 8.7%
COCC(C)N(C(=O)CS(=O)(=O)O)c1c(C)csc1C (configuration not stated) [Dimethenamid ESA],45.5 ± 8.5%,51.4 ± 4.4%,49.6 ± 3.4%,,,,45.4 ± 4.1%
O=P(O)(Oc1ccccc1)Oc1ccccc1 [Diphenylphosphate],46.4 ± 13%,56 ± 6.6%,47 ± 7%,,44.6 ± 4.8%,,49.8 ± 8.2%
O=c1[nH]c2ccccc2n1CCCN1CCC(n2c(=O)[nH]c3cc(Cl)ccc32)CC1 [Domperidone],44.4 ± 5.1%,46.3 ± 3.7%,44.6 ± 4.9%,,,,42.3 ± 4.4%
NCC1(CC(=O)O)CCCCC1 [Gabapentin],,,0.0969 ± 0.19%,,14.7 ± 7.2%,,0.00483 ± 0.0084%
NC(=O)N=C(N)N [Guanylurea],0.503 ± 1.2%,0.581 ± 0.1%,1.06 ± 1.4%,,,,0.912 ± 0.18%

# Other lines, results leading:
chemical recovery by SPE of plasma ([1]; equilibration time (d): 1),chemical recovery by SPE of plasma ([1]; equilibration time (d): 3),"chemical recovery [2, 3]","chemical recovery [2, 4]","chemical recovery [2, 5]","chemical recovery [2, 6]",chemical recovery by SPE of plasma ([1]; equilibration time (d): 6),SMILES
52.2 ± 8.1%,58.9 ± 3.8%,51.7 ± 4.2%,,,,51.8 ± 2.6%,COCC(C)N(C(=O)C(=O)O)c1c(C)csc1C (configuration not stated) [Dimethenamid OA]
49.8 ± 6.7%,54.2 ± 3.9%,52.4 ± 4.3%,44.6 ± 2.1%,45.3 ± 3%,46.7 ± 3.3%,49.3 ± 4%,COC(=O)c1cc(C(=O)OC)cc(S(=O)(=O)O)c1 [Dimethyl-5-sulfoisophthalate]
43.2 ± 7.6%,47 ± 2.3%,37.8 ± 5.6%,42.2 ± 3.9%,36.2 ± 1.4%,70.5 ± 3.8%,44.9 ± 4.6%,CCOC(=O)[C@H](CCc1ccccc1)N[C@@H](C)C(=O)N1CCC[C@H]1C(=O)O [Enalapril]
,11.9 ± 6.8%,3.18 ± 1.2%,4.25 ± 0.61%,10.9 ± 8.2%,66 ± 3.4%,6.49 ± 3.8%,CC[C@H]1OC(=O)[C@H](C)[C@@H](O[C@H]2C[C@@](C)(OC)[C@@H](O)[C@H](C)O2)[C@H](C)[C@@H](O[C@@H]2O[C@H](C)C[C@H](N(C)C)[C@H]2O)[C@](C)(O)C[C@@H](C)C(=O)[C@H](C)[C@@H](O)[C@]1(C)O [Erythromycin]
36.8 ± 3.4%,40.9 ± 6.5%,,54.9 ± 4.7%,,35.5 ± 10%,38.4 ± 0.53%,COc1cc([C@@H]2c3cc4c(cc3[C@@H](O[C@@H]3O[C@@H]5CO[C@@H](C)O[C@H]5[C@H](O)[C@H]3O)[C@H]3COC(=O)[C@H]23)OCO4)cc(OC)c1O [Etoposide]
46.8 ± 5.2%,51.4 ± 1.9%,47.9 ± 6.4%,,,,44.3 ± 2.9%,C[C@@H]1C[C@H]2[C@@H]3C[C@H](F)C4=CC(=O)C=C[C@]4(C)[C@@]3(F)[C@@H](O)C[C@]2(C)[C@@]1(O)C(=O)CO [Flumethasone]
55.5 ± 12%,70.9 ± 4.3%,50 ± 6.5%,44.9 ± 5.1%,48.4 ± 7.2%,69.3 ± 6.1%,66.2 ± 5.9%,NS(=O)(=O)c1cc(C(=O)O)c(NCc2ccco2)cc1Cl [Furosemide]
46.2 ± 7.8%,50 ± 4.5%,46.4 ± 4%,55.5 ± 1.2%,49.1 ± 3.9%,48.3 ± 10%,47 ± 3.7%,O=c1c(-c2ccc(O)cc2)coc2cc(O)cc(O)c12 [Genistein]
,43.4 ± 2.1%,42.1 ± 7%,,,74.9 ± 2.6%,38 ± 3.8%,COc1ccc(Cl)cc1C(=O)NCCc1ccc(S(=O)(=O)NC(=O)NC2CCCCC2)cc1 [Glibenclamide]
46.6 ± 3.4%,45.2 ± 1.8%,42.6 ± 4.8%,36.8 ± 4.8%,32 ± 1.9%,71.4 ± 5.3%,42.1 ± 3%,CCC1=C(C)CN(C(=O)NCCc2ccc(S(=O)(=O)NC(=O)NC3CCC(C)CC3)cc2)C1=O (configuration not stated) [Glimepiride]
,41.1 ± 4.4%,31 ± 6%,33.6 ± 5.2%,33.3 ± 1.8%,,35.8 ± 3.6%,COc1ccc2c(c1)c(CC(=O)O)c(C)n2C(=O)c1ccc(Cl)cc1 [Indometacin]
47.5 ± 5.5%,54 ± 2.6%,53.1 ± 4.2%,56.1 ± 6%,46.1 ± 2.4%,68.4 ± 3.2%,48.2 ± 2.2%,CC(C(=O)O)c1cccc(C(=O)c2ccccc2)c1 (configuration not stated) [Ketoprofen]
46.4 ± 3.9%,50.6 ± 3.4%,51.3 ± 4.4%,47.4 ± 3.7%,55.6 ± 8.6%,70.5 ± 3.8%,44.8 ± 2.3%,CC(CCc1ccccc1)NCC(O)c1ccc(O)c(C(N)=O)c1 (configuration not stated) [Labetalol]
3.98 ± 0.26%,3.93 ± 0.72%,50.8 ± 7.4%,,,73.1 ± 3.5%,2.64 ± 0.097%,CN(C)C(=O)C(CCN1CCC(O)(c2ccc(Cl)cc2)CC1)(c1ccccc1)c1ccccc1 [Loperamide]
